The assay addresses T1, BRAFV600E full-length (amino acids 2-766) (Homo sapiens, UniProt P15056, V600E).
T1 construct: His6-tagged BRAFV600E full-length (amino acids 2-766); His6; made in house; host or cells: baculovirus expression system (insect cells)
As to the kind of experiment: B-Raf Accelerated MEK ATPase assay (BRAMA). It counts as biochemical. The settings on record: categorized. On the procedure:
Compounds of the present invention were tested for B-Raf protein serine kinase inhibitory activity in a B-Raf Accelerated MEK ATPase assay (BRAMA). […] The BRAMA assay is a high sensitivity assay which measures an intrinsic MEK-mediated ATP hydrolysis uncoupled from downstream ERK phosphorylation by coupling the formation of ADP to NADH oxidation through the enzymes pyruvate kinase and lactate dehydrogenase. When ADP production is initiated by addition of catalytic amounts of an activated Raf enzyme and non-phosphorylated MEK, one observes robust ADP production concomitant with Raf-mediated phosphorylation of MEK. The method is disclosed in: C. Rominger, M. Schaber, E. May. Assay for B-Raf Activity Based on Intrinsic MEK ATPase Activity.

Where [1] appears, read: B-Raf pIC50, Table 1b, later runs, average pIC50 for the one or more runs.
Setting [2] is: Table 1a, highest pIC50 for the one or more runs, read-out: B-Raf Activity.
Where [3] appears, read: B-Raf Activity, Table 1a, highest pIC50 for the one or more runs.
The mark [4] stands for this setting: Table 1b, later runs, average pIC50 for the one or more runs, read-out: B-Raf pIC50 (converted).

The record followed here is patent US7994185B2, “Benzene sulfonamide thiazole and oxazole compounds” (Glaxo Smith Kline LLC, priority 2008, dated 2011).

Counter-ions that a name gives are not always drawn. Like-named read-outs stand apart in the source and are kept apart here.

T1 sequence (P15056 2-766 V600E): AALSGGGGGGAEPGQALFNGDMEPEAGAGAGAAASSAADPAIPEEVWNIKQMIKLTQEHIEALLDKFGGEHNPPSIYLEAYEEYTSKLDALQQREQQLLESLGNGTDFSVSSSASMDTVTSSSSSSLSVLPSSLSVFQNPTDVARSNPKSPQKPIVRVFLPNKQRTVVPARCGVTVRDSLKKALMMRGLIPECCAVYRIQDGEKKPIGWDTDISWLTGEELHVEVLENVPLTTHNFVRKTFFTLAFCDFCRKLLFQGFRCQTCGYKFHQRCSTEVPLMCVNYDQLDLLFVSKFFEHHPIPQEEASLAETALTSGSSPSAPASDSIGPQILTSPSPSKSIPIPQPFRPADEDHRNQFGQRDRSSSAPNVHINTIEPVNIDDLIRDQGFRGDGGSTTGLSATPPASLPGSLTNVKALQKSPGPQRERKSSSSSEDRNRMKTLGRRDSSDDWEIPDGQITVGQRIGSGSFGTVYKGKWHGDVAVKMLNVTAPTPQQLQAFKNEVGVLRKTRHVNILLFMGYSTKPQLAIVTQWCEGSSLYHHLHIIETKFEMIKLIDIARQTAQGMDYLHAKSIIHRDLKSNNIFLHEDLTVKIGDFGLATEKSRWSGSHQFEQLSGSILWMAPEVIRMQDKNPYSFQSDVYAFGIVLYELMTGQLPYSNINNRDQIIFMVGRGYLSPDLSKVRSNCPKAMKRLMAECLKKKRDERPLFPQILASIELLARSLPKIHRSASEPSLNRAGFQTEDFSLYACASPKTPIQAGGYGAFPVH

Consider `Cn1ccc(S(=O)(=O)Nc2cccc(-c3nc(C4CCOCC4)sc3-c3ccnc(N)n3)c2F)n1` [Example 289, N-{3-[5-(2-amino-4-pyrimidinyl)-2-(tetrahydro-2H-pyran-4-yl)-1,3-thiazol-4-yl]-2-fluorophenyl}-1-methyl-1H-pyrazole-3-sulfonamide hydrochloride], for which the IC50 under setting [1] lay in the range of 31.6 to 1000 nM.

With `O=S(=O)(Nc1cccc(-c2nc(C3CCOCC3)sc2-c2ccnc(NCCO)n2)c1F)c1ccoc1` [Example 300, N-{2-fluoro-3-[5-{2-[(2-hydroxyethyl)amino]-4-pyrimidinyl}-2-(tetrahydro-2H-pyran-4-yl)-1,3-thiazol-4-yl]phenyl}-3-furansulfonamide], the IC50 under setting [1] is no more than 3.16 nM.

As for `CC(C)c1nc(-c2ccc(F)c(NS(=O)(=O)c3c(F)cccc3F)c2)c(-c2ccnc(NCCCCN(C)C)n2)s1` [Example 173], under setting [2], the IC50 was in the range of 100 to 1000 nM.

The compound `Cc1nccc(-c2sc(C(C)(C)N)nc2-c2cccc(NS(=O)(=O)c3c(F)cccc3F)c2F)n1` [Example 310, N-{3-[2-(1-amino-1-methylethyl)-5-(2-methyl-4-pyrimidinyl)-1,3-thiazol-4-yl]-2-fluorophenyl}-2,6-difluorobenzenesulfonamide] yielded an IC50 under setting [1] of 31.6 to 1000 nM.

The compound `Nc1nccc(-c2sc(C3CCNCC3)nc2-c2cccc(NS(=O)(=O)c3ccoc3)c2F)n1` [Example 324, N-{3-[5-(2-amino-4-pyrimidinyl)-2-(4-piperidinyl)-1,3-thiazol-4-yl]-2-fluorophenyl}-3-furansulfonamide] had an IC50 under setting [1] of no more than 3.16 nM.

For the compound `CC(C)c1nc(-c2ccc(F)c(NS(=O)(=O)c3c(F)cccc3F)c2)c(-c2ccnc(NCCN3CCCC3)n2)s1` [Example 170], under setting [2], the IC50 was greater than 1000 nM.

For `CC(C)c1nc(-c2cccc(NS(=O)(=O)c3c(F)cccc3F)c2)c(-c2ccnc(NCCS(C)(=O)=O)n2)s1` [Example 1, 2,6-Difluoro-N-{3-[2-(1-methylethyl)-5-(2-{[2-(methylsulfonyl)ethyl]amino}-4-pyrimidinyl)-1,3-thiazol-4-yl]phenyl}benzenesulfonamide], the IC50 reads like this: under setting [3], less than 100 nM; under setting [1], no more than 3.16 nM.

As for `Cc1nccc(-c2sc(C3CCNCC3)nc2-c2cccc(NS(=O)(=O)c3ccoc3)c2F)n1` [Example 323, N-{2-fluoro-3-[5-(2-methyl-4-pyrimidinyl)-2-(4-piperidinyl)-1,3-thiazol-4-yl]phenyl}-3-furansulfonamide], the IC50 under setting [4] is 3.16 to 31.6 nM.

In the case of `CC(C)(N)c1nc(-c2cccc(NS(=O)(=O)c3ccoc3)c2F)c(-c2ccnc(N)n2)s1` [Example 312, N-{3-[2-(1-amino-1-methylethyl)-5-(2-amino-4-pyrimidinyl)-1,3-thiazol-4-yl]-2-fluorophenyl}-3-furansulfonamide], under setting [1], the IC50 is no more than 3.16 nM.

Under setting [1], `CC(C)(C)c1nc(-c2c(F)ccc(NS(=O)(=O)c3cc(F)ccc3F)c2F)c(-c2ccncn2)s1` [Example 260, N-{3-[2-(1,1-dimethylethyl)-5-(4-pyrimidinyl)-1,3-thiazol-4-yl]-2,4-difluorophenyl}-2,5-difluorobenzenesulfonamide] had an IC50 of no more than 3.16 nM.

In the case of `C=Cc1nccc(-c2sc(N3CCOCC3)nc2-c2cccc(NS(=O)(=O)c3cc(F)ccc3F)c2F)n1` [Example 277, N-{3-[5-(2-ethenyl-4-pyrimidinyl)-2-(4-morpholinyl)-1,3-thiazol-4-yl]-2-fluorophenyl}-2,5-difluorobenzenesulfonamide], under setting [4], the IC50 is 3.16 to 31.6 nM.

For the compound `Nc1nccc(-c2sc(C3CCOCC3)nc2-c2cccc(NS(=O)(=O)c3ccccn3)c2F)n1` [Example 279, N-{3-[5-(2-amino-4-pyrimidinyl)-2-(tetrahydro-2H-pyran-4-yl)-1,3-thiazol-4-yl]-2-fluorophenyl}-2-pyridinesulfonamide], under setting [4], the IC50 is 3.16 to 31.6 nM.

As for `CC(C)(C)c1nc(-c2cccc(NS(=O)(=O)c3cc(F)ccc3F)c2)c(-c2ccnc(N)n2)s1` [Example 116, N-{3-[5-(2-Amino-4-pyrimidinyl)-2-(1,1-dimethylethyl)-1,3-thiazol-4-yl]phenyl}-2,5-difluorobenzenesulfonamide], the IC50 is less than 100 nM under setting [3] and 3.16 to 31.6 nM under setting [4].

Take `CCc1nc(-c2cccc(NS(=O)(=O)c3c(F)cccc3F)c2F)c(-c2ccnc(N)n2)s1` [Example 257, N-{3-[5-(2-amino-4-pyrimidinyl)-2-ethyl-1,3-thiazol-4-yl]-2-fluorophenyl}-2,6-difluorobenzenesulfonamide]: the IC50 under setting [4] is 3.16 to 31.6 nM.

Under setting [1], `C[C@@H](O)CNc1nccc(-c2sc(C(C)(C)C)nc2-c2cccc(NS(=O)(=O)c3c(F)cccc3F)c2F)n1` [Example 290, N-{3-[2-(1,1-dimethylethyl)-5-(2-{[(2R)-2-hydroxypropyl]amino}-4-pyrimidinyl)-1,3-thiazol-4-yl]-2-fluorophenyl}-2,6-difluorobenzenesulfonamide] displayed an IC50 of no more than 3.16 nM.

On to `C[C@@H](O)CNc1nccc(-c2sc(C3CCOCC3)nc2-c2cccc(NS(=O)(=O)c3ccoc3)c2F)n1` [Example 302, N-{2-fluoro-3-[5-(2-{[(2R)-2-hydroxypropyl]amino}-4-pyrimidinyl)-2-(tetrahydro-2H-pyran-4-yl)-1,3-thiazol-4-yl]phenyl}-3-furansulfonamide], for which the IC50 under setting [1] is no more than 3.16 nM.

`CC(C)(C)c1nc(-c2cccc(NS(=O)(=O)c3c(F)cccc3F)c2F)c(-c2ccnc(NCCC#N)n2)s1` [Example 292, N-{3-[5-{2-[(2-cyanoethyl)amino]-4-pyrimidinyl}-2-(1,1-dimethylethyl)-1,3-thiazol-4-yl]-2-fluorophenyl}-2,6-difluorobenzenesulfonamide] showed an IC50 under setting [1] of no more than 3.16 nM.

In the case of `CC(C)(C)c1nc(-c2ccc(F)c(NS(=O)(=O)c3c(F)cccc3F)c2)c(-c2ccnc(NCCS(C)(=O)=O)n2)s1` [Example 10, N-{5-[2-(1,1-Dimethylethyl)-5-(2-{[2-(methylsulfonyl)ethyl]amino}-4-pyrimidinyl)-1,3-thiazol-4-yl]-2-fluorophenyl}-2,6-difluorobenzenesulfonamide], the IC50 was less than 100 nM under setting [3] and 3.16 to 31.6 nM under setting [4].

Take `CC(C)(C)c1nc(-c2cccc(NS(=O)(=O)c3c(F)cccc3F)c2F)c(-c2ccnc(NC3CC3)n2)s1` [Example 294, N-{3-[5-[2-(cyclopropylamino)-4-pyrimidinyl]-2-(1,1-dimethylethyl)-1,3-thiazol-4-yl]-2-fluorophenyl}-2,6-difluorobenzenesulfonamide]: the IC50 under setting [1] was no more than 3.16 nM.

Take `CC(C)(C(N)=O)c1nc(-c2cccc(NS(=O)(=O)c3c(F)cccc3F)c2F)c(-c2ccnc(N)n2)s1` [Example 309, 2-[5-(2-Amino-4-pyrimidinyl)-4-(3-{[(2,6-difluorophenyl)sulfonyl]amino}-2-fluorophenyl)-1,3-thiazol-2-yl]-2-methylpropanamide]: the IC50 under setting [1] was no more than 3.16 nM.

In the case of `CC(C)(N)c1nc(-c2cccc(NS(=O)(=O)c3c(F)cccc3F)c2F)c(-c2ccnc(N)n2)s1` [Example 313, N-{3-[2-(1-amino-1-methylethyl)-5-(2-amino-4-pyrimidinyl)-1,3-thiazol-4-yl]-2-fluorophenyl}-2,6-difluorobenzenesulfonamide], the IC50 under setting [4] is 3.16 to 31.6 nM.

With `CC(C)(C)c1nc(-c2cccc(NS(=O)(=O)c3ccco3)c2Cl)c(-c2ccncn2)s1` [Example 261, N-{2-chloro-3-[2-(1,1-dimethylethyl)-5-(4-pyrimidinyl)-1,3-thiazol-4-yl]phenyl}-2-furansulfonamide], under setting [1], the IC50 is no more than 3.16 nM.

The compound `CC(C)(C)c1nc(-c2cccc(NS(=O)(=O)c3ccoc3)c2Cl)c(-c2ccncn2)s1` [Example 268, N-{2-chloro-3-[2-(1,1-dimethylethyl)-5-(4-pyrimidinyl)-1,3-thiazol-4-yl]phenyl}-3-furansulfonamide] yielded an IC50 under setting [1] of no more than 3.16 nM.

As to `CC(C)c1nc(-c2cccc(NS(=O)(=O)c3c(F)cccc3F)c2)c(-c2ccnc(N)n2)s1` [Example 90, N-{3-[5-(2-Amino-4-pyrimidinyl)-2-(1-methylethyl)-1,3-thiazol-4-yl]phenyl}-2,6-difluorobenzenesulfonamide], the IC50 was less than 100 nM under setting [3] and 31.6 to 1000 nM under setting [1].

Regarding `CC(C)c1nc(-c2cccc(NS(=O)(=O)c3cccc(F)c3)c2)c(-c2ccnc(NC3CC3)n2)s1` [Example 89, N-{3-[5-[2-(Cyclopropylamino)-4-pyrimidinyl]-2-(1-methylethyl)-1,3-thiazol-4-yl]phenyl}-3-fluorobenzenesulfonamide], the IC50 by setting is: under setting [3], less than 100 nM; under setting [1], 31.6 to 1000 nM.

Regarding `C[C@H](O)CNc1nccc(-c2sc(C(C)(C)C)nc2-c2cccc(NS(=O)(=O)c3c(F)cccc3F)c2F)n1` [Example 291, N-{3-[2-(1,1-dimethylethyl)-5-(2-{[(2S)-2-hydroxypropyl]amino}-4-pyrimidinyl)-1,3-thiazol-4-yl]-2-fluorophenyl}-2,6-difluorobenzenesulfonamide], under setting [1], the IC50 is no more than 3.16 nM.

Consider `CC(C)c1nc(-c2cccc(NS(=O)(=O)c3cccc(F)c3)c2)c(-c2ccnc(NCCCN(C)C)n2)s1` [Example 88, N-{3-[5-(2-{[3-(Dimethylamino)propyl]amino}-4-pyrimidinyl)-2-(1-methylethyl)-1,3-thiazol-4-yl]phenyl}-3-fluorobenzenesulfonamide], for which the IC50 was less than 100 nM under setting [3] and 3.16 to 31.6 nM under setting [4].
